# Test system: human DMD exon 45 knock-in/mouse Dmd exon 44 knock-out mouse tibialis anterior muscle
# Assay: Exon skipping efficiency in skeletal muscle (human DMD exon 45)
# Type: in vivo
# Settings: Example 7; administration solution 3: 25 mM or 250 mM 6-phospho-D-gluconic acid or N-carbamyl-L-aspartic acid, 158 mM sodium chloride, hEx45 #1 and #23 gRNA/Cas9; 50 μL once, day 7; Dunnett's test; FIG. 11
# Procedure: Cas9 protein (120 μg), hDMD Ex45 #1 gRNA (15 μg), hDMD Ex45 #23 gRNA (15 μg) and 10×PBS (25 μL) were mixed and a 500 mM compound stock solution was added, and then, 500 mM compound stock solution was added to the mixture so as to obtain final concentrations: […], […], 300 ng/μL hDMD Ex45 #23 gRNA, 158 mM sodium chloride, 25 mM or 250 mM compound and diluted with UltraPure DNase/RNase-Free Distilled Water up to a liquid volume of 250 μL and incubated at normal temperature for 15 minutes. The Cas9 protein herein was subjected to buffer replacement with 250 mM sodium chloride by use of Amicon® Ultra 2 mL Centrifugal Filters and then put in use […]
# To the tibialis anterior muscle of each of 4 weeks-old male human DMD exon 45 knock-in/mouse Dmd exon 44 knock-out mice, administration solution 3 (50 μL) was administered once. […] Subsequently, a product with skipping was quantitatively measured by use of FastStart Universal Probe Master (Roche), the primers represented by SEQ ID Nos. 14 and 15 and the probe of sequence 16. The product without skipping was quantitatively measured by use of FastStart Universal Probe Master (Roche), the primers represented by SEQ ID Nos. 17 and 18 and the probe of sequence 19. Each of the PCR products was measured by use of ViiA7™ real time PCR system. […]
smiles,measurement,value
NC(=O)N[C@@H](CC(=O)O)C(=O)O [N-Carbamyl-L-aspartic acid],Exon skipping activity (skipping efficiency %) compared to 250 mM GABA,statistically significant results compared to 250 mM GABA

# Source: patent US12673022B2, “Drug delivery system using solution” (Kyoto University, priority 2018, dated 2026)
